This is an account of results in patent publication US11865103B2, “Methods of treating disorders associated with glycosylation defective proteins” (CASE WESTERN RESERVE UNIVERSITY, priority 2016, dated 2024).

Molecules are shown by their SMILES.

For the experiment, the system named is hCLRN1-YFP. Nature of the experiment: Localization of wild-type hCLRN1-YFP in neuromast hair cells of hCLRN1-YFP; clrn1^+/+ larvae treated with SERCA inhibitors. The note with it: for Effect on pattern of localization of wild-type hCLRN1-YFP to the hair cell's bundle or plasma membrane: clrn1^+/+ larvae treated with TG or ART; for YFP intensity in the ROI in hair bundles (Mean±SEM): clrn1^+/+ larvae, 1 uM TG or 0.4 uM ART + 0.01% DMSO in E3 medium, E3 medium 62.82±2.15. In kind it is in vivo, zebrafish. As to the method:
Thapsigargin (TG, 1 mg, Sigma-Aldrich, #T9033) stock in 100% DMSO was diluted in E3 medium to make the required final concentration of the drug. Five different concentrations that were earlier reported to induce ER stress and are non-toxic or lower lethal dose (LD50) in the zebrafish (0.1, 0.5, 1.0, 2.5, 5 μM concentrations) were used in this study. A total of 25 larvae per dosage and treatment duration from the genotypes hCLRN1^N48K-YFP; clrn1^+/+ and hCLRN1-YFP; clrn1^+/+, no older than 72 hours post fertilization (hpf) at the start of the experiment, were placed in a well of 12-well uncoated culture plate (BD Falcon, Canaan, CT). For ER stress induction, larvae were incubated in different dosage of TG from 1 hr to overnight at 28.5° C., followed by three times wash with E3 medium at 28.5° C. (Table 2) and hair cells from the hCLRN1^N48K-YFP; clrn1^+/+ and hCLRN1-YFP; clrn1^+/+ lines were examined for the respective protein distribution pattern in the hair cell bundle and the cell body. Live confocal images of ‘O’ and ‘ML1’ neuromasts per larvae were capture using Leica SP2 confocal microscope with 40× oil immersion objective. Unadjusted 1 micron middle section images of four hair bundles per ML1 neuromast of larvae from TG treated and untreated groups were analyzed using Image J software version v. 1.48 (FIG. 4). The hair bundle trafficked amount of hCLRN1^N48K protein corresponds to the change in YFP intensity in the hair bundle in the TG treated larvae. Quantification of YFP fluorescence intensity was carried out as described in the previous experiment for unconventional trafficking of hCLRN1^N48K-YFP by hGRASP55 cargos. […] Student's t-test was used to confirm the observed changes in the YFP intensity in the hair bundles of TG treatment compared to untreated hCLRN1^N48K-YFP; clrn1^+/+ larvae, is significant (FIG. 4J).
Arthemisinin (ART, 100 mg, Sigma-Aldrich, #361593) in 100% DMSO was diluted in E3 medium to make the final concentration. Five different concentrations within the range of reported ER stress inducing level in the zebrafish (0.1, 0.25, 0.4, 0.5, and 1 μM concentrations) were used in this study. A total of 25 larvae, no older than 72 hpf at the start of the experiment, were placed in a well of 12-well uncoated culture plate (BD 35 Falcon, Canaan, CT). […] From the captured confocal images of these neuromast hair cells, unadjusted 1 micron middle section images of 4 mature hair bundles from ML1 neuromast per larvae were considered for the YFP intensity quantification in unadjusted ROI covering the middle section of each hair bundles using the imageJ software. […] Quantification of YFP fluorescence intensity was carried out as described in the previous experiment for unconventional trafficking of hCLRN1^N48K-YFP by hGRASP55 cargos. […]

Turning to `C[C@@H]1CC[C@H]2[C@@H](C)C(=O)O[C@@H]3O[C@@]4(C)CC[C@@H]1[C@]32OO4` [ART, Artemisinin], the “Effect on pattern of localization of wild-type hCLRN1-YFP to the hair cell's bundle or plasma membrane” value is “did not affect the pattern of localization” and the “YFP intensity in the ROI in hair bundles (Mean±SEM)” value is 71.32±2.05.

For `C/C=C(/C)C(=O)O[C@H]1C(C)=C2[C@H]([C@@H]1OC(=O)CCCCCCC)[C@@](C)(OC(C)=O)C[C@H](OC(=O)CCC)[C@@]1(O)[C@H]2OC(=O)[C@@]1(C)O` [TG, Thapsigargin], the “Effect on pattern of localization of wild-type hCLRN1-YFP to the hair cell's bundle or plasma membrane” value is reported as “did not affect the pattern of localization” and the “YFP intensity in the ROI in hair bundles (Mean±SEM)” value was 68.57±1.36.
